Data: ChEMBL document CHEMBL1126733, “Orally active, nonpeptide vasopressin V1 antagonists. A novel series of 1-(1-substituted 4-piperidyl)-3,4-dihdyro-2(1H)-quinolinone” (J Med Chem, 1993)
Activity calls are given as the source filed them. The calls are words filed in the database; no cut-off is given here.

Assays:
[1] = target: Vasopressin V1a receptor (Rattus norvegicus) (UniProt P30560); experiment: Inhibition expressed as percent change in diastolic blood pressure increased by AVP (30 milliunits / kg, iv) before and after oral administration at 20 uM/kg); No effect; assay type: functional, organism-based; conditions: Artery
Vasopressin V1a receptor (Rattus norvegicus), sequence (P30560 whole entry, looked up): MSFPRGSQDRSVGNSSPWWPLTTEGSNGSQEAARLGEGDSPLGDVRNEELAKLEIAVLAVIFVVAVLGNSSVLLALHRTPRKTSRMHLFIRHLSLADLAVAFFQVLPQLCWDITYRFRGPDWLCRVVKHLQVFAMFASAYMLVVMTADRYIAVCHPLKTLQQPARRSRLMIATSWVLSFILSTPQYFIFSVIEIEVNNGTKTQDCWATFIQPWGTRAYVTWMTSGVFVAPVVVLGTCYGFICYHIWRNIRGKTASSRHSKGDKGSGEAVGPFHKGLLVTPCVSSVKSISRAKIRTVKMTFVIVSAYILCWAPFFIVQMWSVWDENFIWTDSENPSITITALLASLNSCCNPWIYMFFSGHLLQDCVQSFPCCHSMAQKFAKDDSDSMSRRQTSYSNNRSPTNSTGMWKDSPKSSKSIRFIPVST

Vasopressin V2 receptor = Vasopressin V2 receptor (Rattus norvegicus, UniProt Q00788); experiment: Ability to displace [3H]- Arginine Vasopressin (AVP) from its specific binding sites in rat […]
Vasopressin V2 receptor, sequence (Q00788 whole entry): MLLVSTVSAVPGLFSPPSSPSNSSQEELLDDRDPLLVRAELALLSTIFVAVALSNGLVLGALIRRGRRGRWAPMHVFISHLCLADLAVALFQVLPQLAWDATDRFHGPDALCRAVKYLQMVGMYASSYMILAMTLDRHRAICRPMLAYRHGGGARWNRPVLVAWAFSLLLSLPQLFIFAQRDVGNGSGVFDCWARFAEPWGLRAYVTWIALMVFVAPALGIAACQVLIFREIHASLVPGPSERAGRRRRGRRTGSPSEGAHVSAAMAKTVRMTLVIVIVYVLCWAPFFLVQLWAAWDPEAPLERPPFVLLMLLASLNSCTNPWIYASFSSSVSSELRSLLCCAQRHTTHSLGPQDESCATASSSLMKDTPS

Vasopressin V1a receptor = Vasopressin V1a receptor (Rattus norvegicus, UniProt P30560); experiment: Ability to displace [3H]- Arginine Vasopressin (AVP) from its specific binding sites in rat liver (V1 receptor)
Vasopressin V1a receptor, sequence (P30560 whole entry): as the sequence (P30560 whole entry, looked up) above

[2] = target: Vasopressin V1a receptor (Rattus norvegicus) (UniProt P30560); experiment: Inhibition expressed as percent change in diastolic blood pressure increased by AVP (30 milliunits / kg, iv) before and after oral administration at 270 uM/kg; assay type: functional, organism-based; conditions: Artery
[3] = target: Vasopressin V1a receptor (Rattus norvegicus) (UniProt P30560); experiment: Inhibition dose for AVP (30 milliunits/kg, iv) induced vasoconstriction when orally administarted; assay type: functional, organism-based
[4] = target: Vasopressin V1a receptor (Rattus norvegicus) (UniProt P30560); conditions: Artery; 22 uM
Description: Inhibition expressed as percent change in diastolic blood pressure increased by AVP (30 milliunits / kg, iv) before and after oral administration at 22 uM/kg

[5] = target: Vasopressin V1a receptor (Rattus norvegicus) (UniProt P30560); experiment: Inhibition expressed as percent change in diastolic blood pressure increased by AVP (30 milliunits / kg, iv) before and after oral administration at 21 uM/kg; assay type: functional, organism-based; conditions: Artery
[6] = target: Vasopressin V1a receptor (Rattus norvegicus) (UniProt P30560); experiment: Inhibition expressed as percent change in diastolic blood pressure increased by AVP (30 milliunits / kg, iv) before and after oral administration at 23 uM/kg; assay type: functional, organism-based; conditions: Artery
[7] = target: Vasopressin V1a receptor (Rattus norvegicus) (UniProt P30560); experiment: Inhibition expressed as percent change in diastolic blood pressure increased by AVP (30 milliunits / kg, iv) before and after oral administration at 79 uM/kg (n=7); assay type: functional, organism-based; conditions: Artery
[8] = target: Vasopressin V1a receptor (Rattus norvegicus) (UniProt P30560); conditions: Artery; 290 uM
Description: Inhibition expressed as percent change in diastolic blood pressure increased by AVP (30 milliunits / kg, iv) before and after oral administration at 290 uM/kg

[9] = target: Vasopressin V1a receptor (Rattus norvegicus) (UniProt P30560); experiment: Inhibition expressed as percent change in diastolic blood pressure increased by AVP (30 milliunits / kg, iv) before and after oral administration at 76 uM/kg (n=4); assay type: functional, organism-based; conditions: Artery

## NCCCCCCCCOc1ccc(C(=O)N2CCC(N3C(=O)CCc4ccccc43)CC2)cc1
[1]
  inhibition: inactive
Vasopressin V2 receptor
  IC50: 44 µM
Vasopressin V1a receptor
  IC50: 0.068 µM

## CCCCCCOc1ccc(C(=O)N2CCC(N3C(=O)CCc4ccccc43)CC2)cc1
Vasopressin V2 receptor
  IC50: 54 µM
Vasopressin V1a receptor
  IC50: 1.5 µM

## CCC(=O)NCCCOc1ccc(C(=O)N2CCC(N3C(=O)CCc4ccccc43)CC2)cc1
Vasopressin V2 receptor
  IC50: > 100 µM
Vasopressin V1a receptor
  IC50: 0.78 µM

## NCCCOc1ccc(C(=O)N2CCC(N3C(=O)CCc4ccccc43)CC2)cc1
Vasopressin V2 receptor
  IC50: > 100 µM
Vasopressin V1a receptor
  IC50: 0.75 µM

## CCCc1ccc(C(=O)N2CCC(N3C(=O)CCc4ccccc43)CC2)cc1
[2]
  inhibition: 86%
Vasopressin V2 receptor
  IC50: > 100 µM
Vasopressin V1a receptor
  IC50: 0.33 µM

## CC(=O)NCCCOc1ccc(C(=O)N2CCC(N3C(=O)CCc4ccccc43)CC2)cc1
[3]
  ID50: 4.4 µmol/kg
Vasopressin V2 receptor
  IC50: > 100 µM
Vasopressin V1a receptor
  IC50: 0.44 µM
[4]
  inhibition: 93%

## O=C(c1cccc([N+](=O)[O-])c1)N1CCC(N2C(=O)CCc3ccccc32)CC1
Vasopressin V2 receptor
  IC50: > 100 µM
Vasopressin V1a receptor
  IC50: 3.1 µM

## CC(=O)Nc1ccc(C(=O)N2CCC(N3C(=O)CCc4ccccc43)CC2)cc1
Vasopressin V2 receptor
  IC50: > 100 µM
Vasopressin V1a receptor
  IC50: 2.8 µM

## CC(=O)N(C)CCCOc1ccc(C(=O)N2CCC(N3C(=O)CCc4ccccc43)CC2)cc1
Vasopressin V2 receptor
  IC50: > 100 µM
Vasopressin V1a receptor
  IC50: 0.54 µM

## CC(=O)Oc1cccc(C(=O)N2CCC(N3C(=O)CCc4ccccc43)CC2)c1
Vasopressin V2 receptor
  IC50: > 100 µM
Vasopressin V1a receptor
  IC50: 3.7 µM

## CN1CCC(N2C(=O)CCc3ccccc32)CC1
Vasopressin V2 receptor
  IC50: > 50 µM
Vasopressin V1a receptor
  IC50: > 100 µM

## CCCCOc1ccc(C(=O)N2CCC(N3C(=O)CCc4ccccc43)CC2)cc1
Vasopressin V2 receptor
  IC50: > 100 µM
Vasopressin V1a receptor
  IC50: 0.42 µM

## O=C(c1ccccc1O)N1CCC(N2C(=O)CCc3ccccc32)CC1
Vasopressin V2 receptor
  IC50: > 100 µM
Vasopressin V1a receptor
  IC50: 1.5 µM

## COc1ccc(C(=O)N2CCC(N3C(=O)CCc4ccccc43)CC2)cc1
Vasopressin V2 receptor
  IC50: > 100 µM
Vasopressin V1a receptor
  IC50: 0.62 µM

## O=C(c1cccc(Cl)c1)N1CCC(N2C(=O)CCc3ccccc32)CC1
Vasopressin V2 receptor
  IC50: > 100 µM
Vasopressin V1a receptor
  IC50: 4.4 µM

## O=CNCCCOc1ccc(C(=O)N2CCC(N3C(=O)CCc4ccccc43)CC2)cc1
Vasopressin V2 receptor
  IC50: > 100 µM
Vasopressin V1a receptor
  IC50: 0.24 µM

## CC(=O)NCCCCCOc1ccc(C(=O)N2CCC(N3C(=O)CCc4ccccc43)CC2)cc1
[3]
  ID50: 4.7 µmol/kg
Vasopressin V2 receptor
  IC50: > 100 µM
[5]
  inhibition: 81%
Vasopressin V1a receptor
  IC50: 0.16 µM

## NCCCCOc1ccc(C(=O)N2CCC(N3C(=O)CCc4ccccc43)CC2)cc1
Vasopressin V2 receptor
  IC50: > 100 µM
Vasopressin V1a receptor
  IC50: 0.33 µM

## CC(=O)NCCCCOc1ccc(C(=O)N2CCC(N3C(=O)CCc4ccccc43)CC2)cc1
[3]
  ID50: 5.3 µmol/kg
Vasopressin V2 receptor
  IC50: > 100 µM
[5]
  inhibition: 78%
Vasopressin V1a receptor
  IC50: 0.21 µM

## O=C(O)c1ccc(C(=O)N2CCC(N3C(=O)CCc4ccccc43)CC2)cc1
Vasopressin V2 receptor
  IC50: > 100 µM
Vasopressin V1a receptor
  IC50: > 100 µM

## CN(C)c1ccc(C(=O)N2CCC(N3C(=O)CCc4ccccc43)CC2)cc1
Vasopressin V2 receptor
  IC50: > 100 µM
Vasopressin V1a receptor
  IC50: 0.47 µM

## CCCCc1ccc(C(=O)N2CCC(N3C(=O)CCc4ccccc43)CC2)cc1
Vasopressin V2 receptor
  IC50: 83 µM
Vasopressin V1a receptor
  IC50: 0.35 µM

## O=C(c1ccccc1Cl)N1CCC(N2C(=O)CCc3ccccc32)CC1
Vasopressin V2 receptor
  IC50: > 100 µM
Vasopressin V1a receptor
  IC50: 9.9 µM

## CC(=O)NCCOc1ccc(C(=O)N2CCC(N3C(=O)CCc4ccccc43)CC2)cc1
[3]
  ID50: 7.7 µmol/kg
[6]
  inhibition: 80%
Vasopressin V2 receptor
  IC50: > 100 µM
Vasopressin V1a receptor
  IC50: 0.42 µM

## NCCCCCOc1ccc(C(=O)N2CCC(N3C(=O)CCc4ccccc43)CC2)cc1
Vasopressin V2 receptor
  IC50: > 100 µM
Vasopressin V1a receptor
  IC50: 0.28 µM

## CC(=O)NCCCCCCOc1ccc(C(=O)N2CCC(N3C(=O)CCc4ccccc43)CC2)cc1
Vasopressin V2 receptor
  IC50: > 100 µM
Vasopressin V1a receptor
  IC50: 0.12 µM

## O=C(c1cccs1)N1CCC(N2C(=O)CCc3ccccc32)CC1
Vasopressin V2 receptor
  IC50: > 100 µM
Vasopressin V1a receptor
  IC50: 2.5 µM

## O=C1CCc2ccccc2N1C1CCN(Cc2ccccc2)CC1
Vasopressin V2 receptor
  IC50: > 100 µM
Vasopressin V1a receptor
  IC50: > 100 µM

## COC(=O)NCCCOc1ccc(C(=O)N2CCC(N3C(=O)CCc4ccccc43)CC2)cc1
Vasopressin V2 receptor
  IC50: > 100 µM
Vasopressin V1a receptor
  IC50: 0.36 µM

## CC(=O)NCCCCCCCCOc1ccc(C(=O)N2CCC(N3C(=O)CCc4ccccc43)CC2)cc1
Vasopressin V2 receptor
  IC50: > 100 µM
Vasopressin V1a receptor
  IC50: 0.3 µM

## O=C(c1ccc(F)cc1)N1CCC(N2C(=O)CCc3ccccc32)CC1
Vasopressin V2 receptor
  IC50: > 100 µM
Vasopressin V1a receptor
  IC50: 1.4 µM

## O=CNCCCCOc1ccc(C(=O)N2CCC(N3C(=O)CCc4ccccc43)CC2)cc1
Vasopressin V2 receptor
  IC50: > 100 µM
Vasopressin V1a receptor
  IC50: 0.25 µM

## O=C(c1ccco1)N1CCC(N2C(=O)CCc3ccccc32)CC1
Vasopressin V2 receptor
  IC50: > 100 µM
Vasopressin V1a receptor
  IC50: 11 µM

## O=C(c1ccccc1[N+](=O)[O-])N1CCC(N2C(=O)CCc3ccccc32)CC1
Vasopressin V2 receptor
  IC50: > 100 µM
Vasopressin V1a receptor
  IC50: 8.4 µM

## CCc1ccc(C(=O)N2CCC(N3C(=O)CCc4ccccc43)CC2)cc1
Vasopressin V2 receptor
  IC50: 80 µM
Vasopressin V1a receptor
  IC50: 0.5 µM

## O=C(Cc1ccccc1)N1CCC(N2C(=O)CCc3ccccc32)CC1
Vasopressin V2 receptor
  IC50: > 100 µM
Vasopressin V1a receptor
  IC50: 12 µM

## O=C(c1ccccc1)N1CCC(N2C(=O)CCc3ccccc32)CC1
Vasopressin V2 receptor
  IC50: > 50 µM
Vasopressin V1a receptor
  IC50: 1.9 µM

## Nc1ccc(C(=O)N2CCC(N3C(=O)CCc4ccccc43)CC2)cc1
Vasopressin V2 receptor
  IC50: > 100 µM
Vasopressin V1a receptor
  IC50: 3.7 µM

## CCOc1ccc(C(=O)N2CCC(N3C(=O)CCc4ccccc43)CC2)cc1
[7]
  inhibition: 75%
Vasopressin V2 receptor
  IC50: > 100 µM
Vasopressin V1a receptor
  IC50: 0.21 µM

## N#Cc1ccc(C(=O)N2CCC(N3C(=O)CCc4ccccc43)CC2)cc1
Vasopressin V2 receptor
  IC50: > 100 µM
Vasopressin V1a receptor
  IC50: 3.1 µM

## COC(=O)c1ccc(C(=O)N2CCC(N3C(=O)CCc4ccccc43)CC2)cc1
Vasopressin V2 receptor
  IC50: > 100 µM
Vasopressin V1a receptor
  IC50: 3.5 µM

## CC(=O)Oc1ccc(C(=O)N2CCC(N3C(=O)CCc4ccccc43)CC2)cc1
Vasopressin V2 receptor
  IC50: > 100 µM

## Cc1cccc(C(=O)N2CCC(N3C(=O)CCc4ccccc43)CC2)c1
Vasopressin V2 receptor
  IC50: > 100 µM
Vasopressin V1a receptor
  IC50: 1.3 µM

## O=C(c1ccc(O)cc1)N1CCC(N2C(=O)CCc3ccccc32)CC1
Vasopressin V2 receptor
  IC50: > 100 µM
Vasopressin V1a receptor
  IC50: 1.3 µM

## NCCOc1ccc(C(=O)N2CCC(N3C(=O)CCc4ccccc43)CC2)cc1
Vasopressin V2 receptor
  IC50: > 100 µM
Vasopressin V1a receptor
  IC50: 2 µM

## CC(=O)Oc1ccccc1C(=O)N1CCC(N2C(=O)CCc3ccccc32)CC1
Vasopressin V2 receptor
  IC50: > 100 µM
Vasopressin V1a receptor
  IC50: 1.4 µM

## NCCCCCCOc1ccc(C(=O)N2CCC(N3C(=O)CCc4ccccc43)CC2)cc1
Vasopressin V2 receptor
  IC50: > 100 µM
Vasopressin V1a receptor
  IC50: 0.1 µM

## Cc1ccc(C(=O)N2CCC(N3C(=O)CCc4ccccc43)CC2)cc1
Vasopressin V2 receptor
  IC50: > 100 µM
Vasopressin V1a receptor
  IC50: 0.5 µM
[8]
  inhibition: 23%

## O=C(c1ccncc1)N1CCC(N2C(=O)CCc3ccccc32)CC1
Vasopressin V2 receptor
  IC50: > 100 µM
Vasopressin V1a receptor
  IC50: 37 µM

## CCCOc1ccc(C(=O)N2CCC(N3C(=O)CCc4ccccc43)CC2)cc1
[9]
  inhibition: 65%
Vasopressin V2 receptor
  IC50: > 100 µM
Vasopressin V1a receptor
  IC50: 0.32 µM

## Cc1ccccc1C(=O)N1CCC(N2C(=O)CCc3ccccc32)CC1
Vasopressin V2 receptor
  IC50: > 100 µM
Vasopressin V1a receptor
  IC50: 8.4 µM

## O=C(c1cccc(O)c1)N1CCC(N2C(=O)CCc3ccccc32)CC1
Vasopressin V2 receptor
  IC50: > 100 µM
Vasopressin V1a receptor
  IC50: 6.3 µM

## O=C(c1ccc(Br)cc1)N1CCC(N2C(=O)CCc3ccccc32)CC1
Vasopressin V2 receptor
  IC50: 73 µM
Vasopressin V1a receptor
  IC50: 0.5 µM

## O=C(c1ccc(Cl)cc1)N1CCC(N2C(=O)CCc3ccccc32)CC1
Vasopressin V2 receptor
  IC50: 78 µM
Vasopressin V1a receptor
  IC50: 1.2 µM

## NC(=O)c1ccc(C(=O)N2CCC(N3C(=O)CCc4ccccc43)CC2)cc1
Vasopressin V2 receptor
  IC50: > 100 µM
Vasopressin V1a receptor
  IC50: 11 µM

## O=C(c1ccc([N+](=O)[O-])cc1)N1CCC(N2C(=O)CCc3ccccc32)CC1
Vasopressin V2 receptor
  IC50: > 100 µM
Vasopressin V1a receptor
  IC50: 2 µM

## O=C(c1cnccn1)N1CCC(N2C(=O)CCc3ccccc32)CC1
Vasopressin V2 receptor
  IC50: > 100 µM
Vasopressin V1a receptor
  IC50: 26 µM
